One data set has as its system Rattus norvegicus. Description: Antinociceptive activity in ip dosed rat Chung model of neuropathic pain. Format: functional.
Data set [1] concerns the target T1, P2X purinoceptor 7 (Homo sapiens, UniProt Q99572).
T1 sequence (Q99572 whole entry): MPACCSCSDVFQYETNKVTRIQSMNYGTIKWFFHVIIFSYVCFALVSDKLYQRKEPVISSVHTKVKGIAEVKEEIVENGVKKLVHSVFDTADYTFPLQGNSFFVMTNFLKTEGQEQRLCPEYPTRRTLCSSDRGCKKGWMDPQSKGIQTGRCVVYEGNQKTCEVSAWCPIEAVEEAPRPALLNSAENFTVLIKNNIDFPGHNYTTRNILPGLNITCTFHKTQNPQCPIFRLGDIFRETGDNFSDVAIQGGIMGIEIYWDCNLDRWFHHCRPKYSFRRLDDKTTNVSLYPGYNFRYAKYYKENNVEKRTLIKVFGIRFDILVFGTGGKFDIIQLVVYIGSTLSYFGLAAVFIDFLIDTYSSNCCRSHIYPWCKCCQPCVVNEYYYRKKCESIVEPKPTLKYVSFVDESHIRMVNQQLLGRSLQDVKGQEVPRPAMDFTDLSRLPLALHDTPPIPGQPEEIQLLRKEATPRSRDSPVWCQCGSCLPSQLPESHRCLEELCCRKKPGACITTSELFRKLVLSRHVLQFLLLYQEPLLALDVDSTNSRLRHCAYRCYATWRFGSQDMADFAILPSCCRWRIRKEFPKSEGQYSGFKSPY
Description: Antagonist activity at P2X7 receptor in human THP1 cells assessed as inhibition of BzATP-induced ethidium uptake. Format: functional, cell-based, THP-1.

Data set [2] addresses T2, P2X purinoceptor 7 (Rattus norvegicus, UniProt Q64663).
T2 sequence (Q64663 whole entry): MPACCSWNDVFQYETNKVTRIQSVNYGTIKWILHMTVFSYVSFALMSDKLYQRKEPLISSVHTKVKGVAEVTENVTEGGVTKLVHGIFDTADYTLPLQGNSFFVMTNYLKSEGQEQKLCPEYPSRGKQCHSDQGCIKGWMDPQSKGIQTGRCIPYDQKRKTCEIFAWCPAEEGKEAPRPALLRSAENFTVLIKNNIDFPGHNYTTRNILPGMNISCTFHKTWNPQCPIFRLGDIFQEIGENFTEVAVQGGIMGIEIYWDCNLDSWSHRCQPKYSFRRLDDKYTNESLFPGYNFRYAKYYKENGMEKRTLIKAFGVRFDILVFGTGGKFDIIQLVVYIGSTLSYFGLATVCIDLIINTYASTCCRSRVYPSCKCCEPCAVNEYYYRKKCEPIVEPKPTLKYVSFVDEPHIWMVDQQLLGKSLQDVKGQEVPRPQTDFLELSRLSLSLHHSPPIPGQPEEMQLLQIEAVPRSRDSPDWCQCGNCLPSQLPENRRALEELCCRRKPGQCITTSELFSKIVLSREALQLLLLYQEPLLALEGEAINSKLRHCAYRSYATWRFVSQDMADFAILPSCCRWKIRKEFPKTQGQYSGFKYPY
As to the kind of experiment: Activity at rat P2X7 receptor expressed in HEK cells assessed as effect on BzATP-induced ethidium uptake. Format: cell-based, HEK293.

Data set [3] can be described thus: Protein binding in rat plasma. Format: ADME, cell-free. The following applies: read-out: PB (converted).
Data set [4] can be described thus: Half life in ip dosed rat. Format: ADME, organism-based. The note with it: in vivo.
In data set [5] the target is T1, P2X purinoceptor 7. Description: Inhibition of human P2X7 receptor assessed as inhibition of BzATP-induced IL1-beta release.
The target of data set [6] is T1, P2X purinoceptor 7. Description: Antagonist activity at human P2X7 receptor expressed in human U373 cells assessed as inhibition of BzATP-induced Yo-Pro uptake. Format: functional, cell-based, U-373MG ATCC.
Data set [7] deals with T1, P2X purinoceptor 7. As to the kind of experiment: Antagonist activity at human P2X7 receptor expressed in HEK293 cells assessed as inhibition of ATP-induced ethidium uptake.
The target in data set [8] is T1, P2X purinoceptor 7. As to the kind of experiment: Antagonist activity at human P2X7 receptor expressed in HEK293 cells assessed as inhibition of BzATP-induced calcium influx. Format: functional, cell-based. The note with it: hek293.
Data set [9] is described as follows: Terminal phase volume of distribution in Sprague-Dawley rat. Format: ADME, organism-based. The note with it: in vivo, read-out: Vbeta.
The nature of data set [10]: Bioavailability in Sprague-Dawley rat. Format: ADME, organism-based. The following applies: in vivo.
The nature of data set [11]: Plasma clearance in Sprague-Dawley rat. Format: ADME, organism-based.
The nature of data set [12]: Half life in Sprague-Dawley rat. The note with it: in vivo. Format: ADME, organism-based.

The values below come from ChEMBL document CHEMBL1151820, “Antagonists of the P2X(7) receptor. From lead identification to drug development” (J Med Chem, 2009).

The term IC50 denotes the concentration that gives 50% inhibition. The compound `Cc1ccccc1Cn1cnnc1-c1cccc(Cl)c1Cl` came in with an Efficacy in the data set with Rattus norvegicus of 68%. The figures for the IC50 on P2X purinoceptor 7 [1] and at P2X purinoceptor 7 [2] were 79.4 nM and 200 nM, respectively.

As to `Cc1ccc(C(=O)N2CC3CNCC(C2)O3)cc1NC(=O)CC12CC3CC(CC(C3)C1)C2`, the fraction unbound in data set [3] was 0.34.

The half-life is the time needed for the level to fall by half in the phase considered. Low values mean rapid decline, high ones slow decline. `Clc1cccc(-c2nnnn2Cc2cccnc2)c1Cl` had a half-life in [4] of 1 h.

As for `Fc1cccc(CNC2=N[C@@H](c3cccc(F)c3)[C@@H](c3cccc(F)c3)N2)c1`, the IC50 was 1260 nM at P2X purinoceptor 7 [5] and 63.1 nM on P2X purinoceptor 7 [6].

The term pIC50 denotes the IC50 on a negative log10 scale, so that one unit is a factor of ten. Regarding `Cc1n[nH]c(C)c1CC(=O)NCc1ccc(F)c(C(F)(F)F)c1`, the IC50 on P2X purinoceptor 7 [7] is less than 3160 nM. The pIC50 at P2X purinoceptor 7 [8] is listed as greater than 4.7.

For orientation: bioavailability means dose-corrected exposure relative to a reference, in per cent. Lower therefore signals little systemic uptake. Usually clearance stands for a measure of how efficiently the substance is removed, as volume per time. High values mean efficient removal, low ones inefficient removal. For `COc1ccc(CC(=O)NC(N/C(=N/C#N)Nc2cccc3ncccc23)C(C)(C)C)cc1OC` (stereo not drawn), in [9], the Vd came to 21 L/kg. This compound returned a bioavailability in data set [10] of 20%. In addition, the clearance in data set [11] was determined as 62 mL/min/kg. The half-life in data set [12] was 4 h.
